# Measurements published in the NIST ThermoML archive (doi:10.1016/j.jct.2012.09.017).
# Numbers after ± are expanded uncertainties.
# Assay: activity coefficient (dimensionless); of the first substance listed, at infinite dilution; xn = mol fraction of the nth substance listed
# Conditions: 101 kPa, Liquid, Chromatography, x1 = 0
SMILES,activity coefficient (333.15 K),activity coefficient (343.15 K),activity coefficient (353.15 K),activity coefficient (363.15 K),activity coefficient (373.15 K),activity coefficient (318.15 K),activity coefficient (323.15 K)
CCOC(C)=O [ethyl acetate] + CCCC[N+]1(C)CCCC1.O=C1O[B-]2(OC1=O)OC(=O)C(=O)O2,1.75 ± 0.09,1.74 ± 0.09,1.74 ± 0.09,1.73 ± 0.09,1.73 ± 0.09,–,–
CCc1ccccc1 [ethylbenzene] + CCCC[N+]1(C)CCCC1.N#C[B-](C#N)(C#N)C#N,1.68 ± 0.08,1.71 ± 0.09,1.73 ± 0.09,–,–,1.65 ± 0.08,1.66 ± 0.08
CCc1ccccc1 [ethylbenzene] + CCCC[N+]1(C)CCCC1.O=C1O[B-]2(OC1=O)OC(=O)C(=O)O2,3.97 ± 0.2,3.85 ± 0.2,3.74 ± 0.19,3.65 ± 0.19,3.56 ± 0.18,–,–
CCC1CCCCC1 [ethylcyclohexane] + CCCC[N+]1(C)CCCC1.N#C[B-](C#N)(C#N)C#N,15.8 ± 0.8,14.8 ± 0.8,13.9 ± 0.7,–,–,17.6 ± 0.9,17 ± 0.9
CCC1CCCCC1 [ethylcyclohexane] + CCCC[N+]1(C)CCCC1.O=C1O[B-]2(OC1=O)OC(=O)C(=O)O2,41.8 ± 2.2,36.9 ± 1.9,33 ± 1.7,29.7 ± 1.5,27 ± 1.4,–,–
CCCCCCC [heptane] + CCCC[N+]1(C)CCCC1.N#C[B-](C#N)(C#N)C#N,20.9 ± 1.1,19.7 ± 1,18.5 ± 1,–,–,23.2 ± 1.2,22.4 ± 1.2
CCCCCCC [heptane] + CCCC[N+]1(C)CCCC1.O=C1O[B-]2(OC1=O)OC(=O)C(=O)O2,62.9 ± 3.3,55.4 ± 2.9,49.5 ± 2.6,44.7 ± 2.3,40.8 ± 2.1,–,–
CO [methanol] + CCCC[N+]1(C)CCCC1.N#C[B-](C#N)(C#N)C#N,0.931 ± 0.042,0.878 ± 0.04,0.831 ± 0.039,–,–,1.03 ± 0.05,0.992 ± 0.043
CO [methanol] + CCCC[N+]1(C)CCCC1.O=C1O[B-]2(OC1=O)OC(=O)C(=O)O2,1.27 ± 0.06,1.19 ± 0.05,1.11 ± 0.05,1.05 ± 0.05,0.99 ± 0.043,–,–
COC(C)=O [methyl ethanoate] + CCCC[N+]1(C)CCCC1.N#C[B-](C#N)(C#N)C#N,0.693 ± 0.035,0.708 ± 0.035,0.724 ± 0.036,–,–,0.671 ± 0.034,0.678 ± 0.034
COC(C)=O [methyl ethanoate] + CCCC[N+]1(C)CCCC1.O=C1O[B-]2(OC1=O)OC(=O)C(=O)O2,1.03 ± 0.05,1.04 ± 0.05,1.06 ± 0.05,1.08 ± 0.05,1.09 ± 0.05,–,–
CC1CCCCC1 [methylcyclohexane] + CCCC[N+]1(C)CCCC1.N#C[B-](C#N)(C#N)C#N,11.2 ± 0.6,10.6 ± 0.5,10.1 ± 0.5,–,–,12.2 ± 0.6,11.8 ± 0.6
CC1CCCCC1 [methylcyclohexane] + CCCC[N+]1(C)CCCC1.O=C1O[B-]2(OC1=O)OC(=O)C(=O)O2,30 ± 1.6,26.5 ± 1.4,24 ± 1.2,21.6 ± 1.1,19.9 ± 1,–,–
C[N+](=O)[O-] [nitromethane] + CCCC[N+]1(C)CCCC1.N#C[B-](C#N)(C#N)C#N,0.429 ± 0.029,0.431 ± 0.029,0.433 ± 0.029,–,–,0.427 ± 0.029,0.427 ± 0.029
C[N+](=O)[O-] [nitromethane] + CCCC[N+]1(C)CCCC1.O=C1O[B-]2(OC1=O)OC(=O)C(=O)O2,0.416 ± 0.029,0.423 ± 0.029,0.43 ± 0.029,0.436 ± 0.029,0.441 ± 0.029,–,–
C=CCCCCCC [oct-1-ene] + CCCC[N+]1(C)CCCC1.N#C[B-](C#N)(C#N)C#N,14.7 ± 0.8,14 ± 0.7,13.4 ± 0.7,–,–,15.8 ± 0.8,15.4 ± 0.8
C=CCCCCCC [oct-1-ene] + CCCC[N+]1(C)CCCC1.O=C1O[B-]2(OC1=O)OC(=O)C(=O)O2,41.4 ± 2.1,37.5 ± 1.9,34.3 ± 1.8,31.5 ± 1.6,29.3 ± 1.5,–,–
CCCCCCCC [octane] + CCCC[N+]1(C)CCCC1.N#C[B-](C#N)(C#N)C#N,29.4 ± 1.5,27.4 ± 1.4,25.6 ± 1.3,–,–,33.2 ± 1.7,31.8 ± 1.6
CCCCCCCC [octane] + CCCC[N+]1(C)CCCC1.O=C1O[B-]2(OC1=O)OC(=O)C(=O)O2,88.8 ± 4.6,77.7 ± 4,69.3 ± 3.6,61.9 ± 3.2,56.1 ± 2.9,–,–
CCCO [propan-1-ol] + CCCC[N+]1(C)CCCC1.N#C[B-](C#N)(C#N)C#N,1.34 ± 0.06,1.24 ± 0.06,1.15 ± 0.05,–,–,1.53 ± 0.07,1.46 ± 0.07
CCCO [propan-1-ol] + CCCC[N+]1(C)CCCC1.O=C1O[B-]2(OC1=O)OC(=O)C(=O)O2,2.56 ± 0.13,2.3 ± 0.12,2.08 ± 0.11,1.9 ± 0.1,1.76 ± 0.09,–,–
CC(C)O [propan-2-ol] + CCCC[N+]1(C)CCCC1.N#C[B-](C#N)(C#N)C#N,1.35 ± 0.06,1.25 ± 0.06,1.16 ± 0.05,–,–,–,–
CC(C)O [propan-2-ol] + CCCC[N+]1(C)CCCC1.O=C1O[B-]2(OC1=O)OC(=O)C(=O)O2,–,–,–,1.98 ± 0.1,1.83 ± 0.09,–,–
ClC(Cl)(Cl)Cl [tetrachloromethane] + CCCC[N+]1(C)CCCC1.N#C[B-](C#N)(C#N)C#N,2.43 ± 0.12,2.45 ± 0.13,2.47 ± 0.13,–,–,2.4 ± 0.12,2.41 ± 0.12
ClC(Cl)(Cl)Cl [tetrachloromethane] + CCCC[N+]1(C)CCCC1.O=C1O[B-]2(OC1=O)OC(=O)C(=O)O2,4.23 ± 0.22,4.14 ± 0.21,4.07 ± 0.21,4 ± 0.21,3.95 ± 0.2,–,–
C1CCOC1 [tetrahydrofuran] + CCCC[N+]1(C)CCCC1.N#C[B-](C#N)(C#N)C#N,0.65 ± 0.034,0.667 ± 0.034,0.683 ± 0.034,–,–,0.622 ± 0.033,0.632 ± 0.033
C1CCOC1 [tetrahydrofuran] + CCCC[N+]1(C)CCCC1.O=C1O[B-]2(OC1=O)OC(=O)C(=O)O2,1.13 ± 0.05,1.14 ± 0.05,1.15 ± 0.05,1.15 ± 0.05,1.16 ± 0.05,–,–
c1ccsc1 [thiophene] + CCCC[N+]1(C)CCCC1.N#C[B-](C#N)(C#N)C#N,0.703 ± 0.035,0.718 ± 0.035,0.733 ± 0.036,–,–,0.681 ± 0.034,0.688 ± 0.035
c1ccsc1 [thiophene] + CCCC[N+]1(C)CCCC1.O=C1O[B-]2(OC1=O)OC(=O)C(=O)O2,1.13 ± 0.05,1.12 ± 0.05,1.12 ± 0.05,1.13 ± 0.05,1.13 ± 0.05,–,–
